The results in this text go back to PubChem BioAssay AID330 (DTP/NCI, 2004).

Several values for one entry are separate records, joined by “and”; a condition that tells them apart may be missing. Equal values may be shown once. Toxic doses and inconclusive results are not listed.

The test has as its system P388 leukemia ip, CD2F1 mice, survival T/C. Put plainly: NCI In Vivo Anticancer Drug Screen. Data for tumor model P388 Leukemia (intraperitoneal) in CD2F1 (CDF1) mice. Conditions: endpoint: median survival time, higher = longer survival. Put shortly:
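Mice carrying the transplanted tumor received test compound or vehicle. Survival was recorded in each group, and the value is the treated-group measurement divided by that of the vehicle-treated control group.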

The mark [1] stands for this setting: dose: 50.0 mg/kg/injection, schedule: Q01DX009 (ip), vehicle: Klucel (hydroxypropylcellulose) (HPC).
Setting [2] is: dose: 100.0 mg/kg/injection, schedule: Q01DX009 (ip), vehicle: Klucel (hydroxypropylcellulose) (HPC).
The mark [3] stands for this setting: dose: 200.0 mg/kg/injection, schedule: Q01DX009 (ip), vehicle: Klucel (hydroxypropylcellulose) (HPC).
[4] abbreviates: dose: 50.0 mg/kg/injection, schedule: Q01DX005 (ip), vehicle: Klucel (hydroxypropylcellulose) (HPC).
The mark [5] stands for this setting: dose: 100.0 mg/kg/injection, schedule: Q01DX005 (ip), vehicle: Klucel (hydroxypropylcellulose) (HPC).
[6] abbreviates: dose: 12.5 mg/kg/injection, schedule: Q01DX009 (ip), vehicle: saline with Tween-80.
The mark [7] stands for this setting: dose: 25.0 mg/kg/injection, schedule: Q01DX009 (ip), vehicle: saline with Tween-80.
[8] abbreviates: dose: 50.0 mg/kg/injection, schedule: Q01DX009 (ip), vehicle: saline with Tween-80.
Setting [9] is: dose: 50.0 mg/kg/injection, schedule: Q01DX005 (ip), vehicle: saline with Tween-80.
The mark [10] stands for this setting: dose: 100.0 mg/kg/injection, schedule: Q04DX003 (ip), vehicle: saline with Tween-80.
Where [11] appears, read: dose: 200.0 mg/kg/injection, schedule: Q04DX003 (ip), vehicle: saline with Tween-80.
Where [12] appears, read: dose: 60.0 mg/kg/injection, schedule: Q01DX005 (ip), vehicle: saline with Tween-80.
Setting [13] is: dose: 120.0 mg/kg/injection, schedule: Q01DX005 (ip), vehicle: saline with Tween-80.
[14] abbreviates: dose: 240.0 mg/kg/injection, schedule: Q01DX005 (ip), vehicle: saline with Tween-80.

As for `Nc1cc(C(CC(=O)NO)NO)ccc1[N+](=O)[O-]` (centres undefined), the T/C under setting [1] is 94 % of control, the T/C under setting [2] was 110 % of control and the T/C under setting [3] is 102 % of control.

For `O=P(c1ccccc1)(c1ccccc1)c1ccccc1OCCCO`, the T/C under setting [4] is 99 % of control; the T/C under setting [5] was 100 % of control; the T/C (dose: 200.0 mg/kg/injection, schedule: Q01DX005 (ip), vehicle: Klucel (hydroxypropylcellulose) (HPC)) was 97 % of control.

`NN1CCCC1`: the T/C is 90 % of control (dose: 100.0 mg/kg/injection, schedule: Q04DX003 (ip), vehicle: saline) and 95 % of control (dose: 200.0 mg/kg/injection, schedule: Q04DX003 (ip), vehicle: saline).

For `CC[CH2][Sn]([Br])([Br])[CH2]CC`, the T/C was 114 % of control (dose: 3.12 mg/kg/injection, schedule: Q04DX003 (ip), vehicle: saline) and 109 % of control (dose: 6.25 mg/kg/injection, schedule: Q04DX003 (ip), vehicle: saline).

As to `O=C(O)c1ccccc1N=Nc1ccc(N(CCCl)CCCl)cc1`, the T/C (dose: 3.13 mg/kg/injection, schedule: Q04DX003 (ip), vehicle: Klucel (hydroxypropylcellulose) (HPC)) is 122 % of control; the T/C (dose: 6.25 mg/kg/injection, schedule: Q01DX009 (ip), vehicle: saline with Tween-80) was 166 % of control; the T/C under setting [6] is 152 % of control and 154 % of control; the T/C (dose: 12.5 mg/kg/injection, schedule: Q04DX003 (ip), vehicle: Klucel (hydroxypropylcellulose) (HPC)) is 177 % of control; the T/C under setting [7] was 162 % of control and 166 % of control; the T/C under setting [8] was 99 % of control.

Take `O=C(C(Oc1ccc(Cl)cc1)n1cncn1)N1CCOC1C1CCCCC1` (centres undefined): the T/C was 103 % of control (dose: 50.0 mg/kg/injection, schedule: Q01DX001 (ip), vehicle: Klucel (hydroxypropylcellulose) (HPC)); 100 % of control (dose: 100.0 mg/kg/injection, schedule: Q01DX001 (ip), vehicle: Klucel (hydroxypropylcellulose) (HPC)); 100 % of control (dose: 200.0 mg/kg/injection, schedule: Q01DX001 (ip), vehicle: Klucel (hydroxypropylcellulose) (HPC)).

On to `COc1cc(C[C@@H]([C@@H](CO)Cc2ccc3c(c2)OCO3)[C@H](O)CO)cc(OC)c1OC`, for which the T/C was 103 % of control (dose: 6.25 mg/kg/injection, schedule: Q04DX002 (ip), vehicle: acetone); 100 % of control (dose: 12.5 mg/kg/injection, schedule: Q04DX002 (ip), vehicle: acetone); 100 % of control (dose: 25.0 mg/kg/injection, schedule: Q04DX002 (ip), vehicle: acetone).

`CN1C2Cc3cc4c(cc3[C@@]23Cc2ccc5c(c2[C@@H]1O3)OCO5)OCO4` (some centres undefined): the T/C (dose: 8.0 mg/kg/injection, schedule: Q01DX005 (ip), vehicle: Klucel (hydroxypropylcellulose) (HPC)) is 94 % of control; the T/C (dose: 16.0 mg/kg/injection, schedule: Q01DX005 (ip), vehicle: Klucel (hydroxypropylcellulose) (HPC)) was 109 % of control; the T/C (dose: 32.0 mg/kg/injection, schedule: Q01DX005 (ip), vehicle: Klucel (hydroxypropylcellulose) (HPC)) was 94 % of control; the T/C (dose: 64.0 mg/kg/injection, schedule: Q01DX005 (ip), vehicle: Klucel (hydroxypropylcellulose) (HPC)) was 98 % of control.

Regarding `CC(=O)N(O)c1ccc(Cl)cc1`, the T/C (dose: 25.0 mg/kg/injection, schedule: Q04DX002 (ip), vehicle: saline with Tween-80) was 100 % of control; the T/C (dose: 50.0 mg/kg/injection, schedule: Q04DX002 (ip), vehicle: saline with Tween-80) is 102 % of control; the T/C (dose: 100.0 mg/kg/injection, schedule: Q04DX002 (ip), vehicle: saline with Tween-80) was 100 % of control; the T/C (dose: 200.0 mg/kg/injection, schedule: Q04DX002 (ip), vehicle: saline with Tween-80) is 105 % of control.

As to `CN1c2ccccc2S(=O)(=O)n2c(COc3ccc(Cl)cc3)nnc21`, the T/C was 100 % of control (dose: 12.5 mg/kg/injection, schedule: Q01DX005 (ip), vehicle: saline with Tween-80); 100 % of control (dose: 25.0 mg/kg/injection, schedule: Q01DX005 (ip), vehicle: saline with Tween-80); 106 % of control under setting [9].

For `CCOC(=O)CCC(NC(=O)c1ccc(CBr)cc1)C(=O)OCC` (centres undefined), the T/C reads like this: (dose: 12.5 mg/kg/injection, schedule: Q01DX009 (ip), vehicle: distilled water + Tween-80) 102 % of control; (dose: 25.0 mg/kg/injection, schedule: Q01DX009 (ip), vehicle: distilled water + Tween-80) 111 % of control; (dose: 50.0 mg/kg/injection, schedule: Q01DX009 (ip), vehicle: distilled water + Tween-80) 107 % of control; (dose: 100.0 mg/kg/injection, schedule: Q01DX009 (ip), vehicle: distilled water + Tween-80) 100 % of control.

Regarding `O=NN(CC(=O)OCc1ccccc1)NC(=O)OCc1ccccc1`, the T/C is 96 % of control (dose: 12.5 mg/kg/injection, schedule: Q01DX009 (ip), vehicle: other); 97 % of control (dose: 25.0 mg/kg/injection, schedule: Q01DX009 (ip), vehicle: other); 94 % of control (dose: 50.0 mg/kg/injection, schedule: Q01DX009 (ip), vehicle: other); 96 % of control (dose: 100.0 mg/kg/injection, schedule: Q01DX009 (ip), vehicle: other); 96 % of control (dose: 200.0 mg/kg/injection, schedule: Q01DX009 (ip), vehicle: other).

With `O=C(COc1ccc(Cl)cc1Cl)NCCN1CCCCC1`, the T/C was 107 % of control under setting [1], 100 % of control under setting [2] and 100 % of control under setting [3].

Regarding `c1ccc(-c2ccc(NCCN3CCOCC3)nn2)cc1`, the T/C runs as follows: (dose: 60.0 mg/kg/injection, schedule: Q01DX005 (ip), vehicle: Klucel (hydroxypropylcellulose) (HPC)) 100 % of control; (dose: 120.0 mg/kg/injection, schedule: Q01DX005 (ip), vehicle: Klucel (hydroxypropylcellulose) (HPC)) 105 % of control.

As for `Clc1ccc(Cl)c(N=NNc2cc(Cl)ccc2Cl)c1`, the T/C reads like this: under setting [6], 96 % of control; under setting [7], 99 % of control; (dose: 25.0 mg/kg/injection, schedule: Q01DX009 (ip), vehicle: saline) 98 % of control; under setting [8], 97 % of control; (dose: 50.0 mg/kg/injection, schedule: Q01DX009 (ip), vehicle: saline) 94 % of control; (dose: 100.0 mg/kg/injection, schedule: Q01DX009 (ip), vehicle: saline with Tween-80) 98 % of control. The T/C by setting is: (dose: 100.0 mg/kg/injection, schedule: Q01DX009 (ip), vehicle: saline) 92 % of control; under setting [10], 104 % of control; (dose: 200.0 mg/kg/injection, schedule: Q01DX009 (ip), vehicle: saline with Tween-80) 88 % of control; (dose: 200.0 mg/kg/injection, schedule: Q01DX009 (ip), vehicle: saline) 92 % of control; under setting [11], 104 % of control; (dose: 400.0 mg/kg/injection, schedule: Q04DX003 (ip), vehicle: saline with Tween-80) 95 % of control.

For the molecule `Ic1ccccc1C[N+]12CN3CN(CN(C3)C1)C2`, the T/C is 120 % of control under setting [10] and 115 % of control under setting [11].

Take `O=C1Cn2c(c3ccccc3nc2=O)N1`: the T/C by setting is: under setting [9], 104 % of control; (dose: 100.0 mg/kg/injection, schedule: Q01DX005 (ip), vehicle: saline with Tween-80) 103 % of control; (dose: 200.0 mg/kg/injection, schedule: Q01DX005 (ip), vehicle: saline with Tween-80) 106 % of control.

Regarding `Cc1n[nH]c(=O)c2cc3oc4ccccc4c3n12`, the T/C is 100 % of control under setting [12], 94 % of control under setting [13] and 92 % of control under setting [14].

Turning to `O=C(N/N=C/c1ccccn1)c1ccccc1[O-].O=C(N/N=C/c1ccccn1)c1ccccc1[O-].[Co+2]`, the T/C is 113 % of control under setting [4] and 117 % of control under setting [5].

For the molecule `C/C(=N\NC(=S)N1CCCCCC1)c1nccnc1C`, the T/C was 112 % of control (dose: 25.0 mg/kg/injection, schedule: Q01DX005 (ip), vehicle: Klucel (hydroxypropylcellulose) (HPC)) and 122 % of control under setting [4].

For `Cc1nc(N)[nH]c(=O)c1CCCNC(=O)c1cccc([N+](=O)[O-])c1`, the T/C runs as follows: under setting [12], 94 % of control; under setting [13], 100 % of control; under setting [14], 103 % of control.
